# Assays:
# [1] = target: T1, CYP3A4 (Homo sapiens, UniProt P08684); experiment: IC50 vs CYP3A by inhibition of lopinavir metabolism in human liver microsomes; assay type: biochemical; settings: human liver microsomes 0.01 mg/mL, 1.5 μM lopinavir, 8 min 37° C.; test conc. e.g. 0.098-100 nM; unit inferred; read-out: 3A4(LPV)
# T1 construct: 0.01 mg/mL protein human liver microsomes (BD Gentest); tissue BD Gentest; host or cells: human liver microsomes
# Experimental: Determination of IC50 Vs CYP3A by Measurement of Inhibition of Lopinavir Metabolism
# This assay was performed in a standard 96-well plate design. IC50 values were calculated from the percent inhibition observed for each test compound at 6 concentrations (for example, 0.098, 0.391, 1.56, 6.25, 25 and 100 nM). The incubation substrate mix contains 1.5 μM lopinavir, 0.01 mg/mL protein human liver microsomes (BD Gentest), 1 mM NAPDH, 3.3 mM MgCl2 and 100 mM potassium phosphate buffer (pH 7.4). The production of the sum of three hydroxylated metabolites (M2: 6-hydroxy lopinavir, M3: 4-hydroxy lopinavir, M4: 4-hydroxy lopinavir (epimer of M3), Kumar et al., 1999) was determined after incubation for 8 min at 37° C. Quantitation of the metabolite peak area ratio against an internal standard (tolbutamide) was determined by LC/MS/MS analysis following acetonitrile treatment of the incubations.
# (§1) Samples were analyzed in the MRM mode with a SCIEX API-4000 mass spectrometer (Applied Biosystems, Foster City, Calif.), with a Shimadzu LC-20 AD pump (Shimadzu corporation, Kyoto, JP) and a CTC PAL autosampler (Agilent Technologies, Switzerland). A Phenomenex, Luna, 5 μm, 100 A, 2.00×30 mm HPLC column was used for the separation. The mobile phases were: (A) 0.1% formic acid in water and (B) 0.1% formic acid in acetonitrile. The binary gradient was as follows.
# (§2) The peak area ratio of the analyte to the internal standard was used to quantify the metabolite. The values of peak area ratios in the presence of test compound were compared to those of maximum or minimum controls and were expressed as % inhibition by interpolating between the maximum and minimum peak area ratios. Incubations with no inhibitor were defined as the maxima and with 5 μM ketoconazole were defined as the minima.
# (§3) The following equation was used to calculate the % inhibition: [1−[(X−Low control)/(High control−Low control)]]*100
# For the IC50 calculation, SigmaPlot was used to plot the mean % inhibition versus the test compound concentrations and for non-linear regression analysis of the data. Depending on the range of data points defining the inhibition curve, the data may have been fit to the 4-parameter logistic equation.
# [2] = target: T2, CYP2D6 (Homo sapiens, UniProt P10635); experiment: Cocktail CYP inhibition assay in human liver microsomes, dextromethorphan O-demethylation; assay type: in vitro ADME; settings: human liver microsomes 0.1 mg/mL, 5 μM dextromethorphan, 10 min 37° C.; unit inferred
# T2 construct: 0.1 mg/mL protein human liver microsomes (BD Gentest); tissue BD Gentest; host or cells: human liver microsomes
# Experimental: (§4) Determination of IC50 in a Cocktail Assay for CYPs 1A2, 2C9, 2C19, 2D6 and 3A4
# (§5) This assay was performed in a standard 96-well plate design. IC50 values were calculated from the percent inhibition observed for each test compound at 6 concentrations (for example, 0.0032, 0.016, 0.08, 0.4, 2 and 10 μM). The incubation substrate mix contains 10 μM phenacetin (1A2), 5 μM diclofenac (2C9), 30 μM mephenytoin (2C19), 5 μM dextromethorphan (2D6) and 2 μM midazolam (3A4), 0.1 mg/mL protein human liver microsomes (BD Gentest), 1 mM NAPDH, 3.3 mM MgCl2 and 100 mM potassium phosphate buffer (pH 7.4). The production of the metabolite of each probe substrate was determined after incubation for 10 min at 37° C. Quantitation of the metabolite peak area ratio against an internal standard (tolbutamide) was determined by LC/MS/MS analysis following acetonitrile treatment of the incubations.
# as §1
# as §2, with “maxima.” for “maxima and with 5 μM ketoconazole were defined as the minima.”
# as §3
# (§6) For the IC50 calculation, SigmaPlot was used to plot the mean % inhibition versus the test compound concentrations and for non-linear regression analysis of the data. […]
# [3] = target: T3, CYP2C9 (Homo sapiens, UniProt P11712); experiment: Cocktail CYP inhibition assay in human liver microsomes, diclofenac 4'-hydroxylation; assay type: in vitro ADME; settings: human liver microsomes 0.1 mg/mL, 5 μM diclofenac, 10 min 37° C.; unit inferred
# T3 construct: 0.1 mg/mL protein human liver microsomes (BD Gentest); tissue BD Gentest; host or cells: human liver microsomes
# Experimental: as §4, §5, §1
# as §2, with “maxima.” for “maxima and with 5 μM ketoconazole were defined as the minima.”
# as §3, §6
# [4] = target: T4, CYP2C19 (Homo sapiens, UniProt P33261); experiment: Cocktail CYP inhibition assay in human liver microsomes, mephenytoin 4'-hydroxylation; assay type: in vitro ADME; settings: human liver microsomes 0.1 mg/mL, 30 μM mephenytoin, 10 min 37° C.; unit inferred
# T4 construct: 0.1 mg/mL protein human liver microsomes (BD Gentest); tissue BD Gentest; host or cells: human liver microsomes
# Experimental: as §4, §5, §1
# as §2, with “maxima.” for “maxima and with 5 μM ketoconazole were defined as the minima.”
# as §3, §6
# T3 sequence (P11712 whole entry): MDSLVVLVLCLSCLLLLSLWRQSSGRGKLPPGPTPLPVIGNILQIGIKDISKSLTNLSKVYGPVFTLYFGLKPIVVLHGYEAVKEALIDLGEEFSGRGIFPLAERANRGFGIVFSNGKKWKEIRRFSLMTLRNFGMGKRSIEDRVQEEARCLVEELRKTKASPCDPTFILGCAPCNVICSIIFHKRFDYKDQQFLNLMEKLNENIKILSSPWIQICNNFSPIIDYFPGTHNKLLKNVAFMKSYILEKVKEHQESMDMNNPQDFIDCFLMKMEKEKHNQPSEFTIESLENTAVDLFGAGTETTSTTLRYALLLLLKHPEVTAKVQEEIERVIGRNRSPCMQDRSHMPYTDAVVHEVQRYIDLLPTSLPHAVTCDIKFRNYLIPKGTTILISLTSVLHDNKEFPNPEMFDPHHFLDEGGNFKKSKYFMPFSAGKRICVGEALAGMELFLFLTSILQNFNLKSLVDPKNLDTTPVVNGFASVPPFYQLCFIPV
# T4 sequence (P33261 whole entry): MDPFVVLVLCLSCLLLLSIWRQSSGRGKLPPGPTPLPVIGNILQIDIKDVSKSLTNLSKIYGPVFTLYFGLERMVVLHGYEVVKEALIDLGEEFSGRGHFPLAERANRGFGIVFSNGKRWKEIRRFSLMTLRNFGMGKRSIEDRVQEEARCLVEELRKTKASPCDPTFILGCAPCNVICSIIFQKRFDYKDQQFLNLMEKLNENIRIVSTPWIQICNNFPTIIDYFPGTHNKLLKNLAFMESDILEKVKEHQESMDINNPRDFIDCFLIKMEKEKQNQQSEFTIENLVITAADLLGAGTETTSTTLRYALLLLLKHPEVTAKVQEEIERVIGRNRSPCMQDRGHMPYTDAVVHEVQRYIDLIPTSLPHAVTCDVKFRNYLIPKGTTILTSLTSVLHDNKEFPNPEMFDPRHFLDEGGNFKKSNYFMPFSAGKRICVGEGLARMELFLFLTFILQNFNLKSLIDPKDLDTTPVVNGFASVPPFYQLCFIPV
# T1 sequence (P08684 2-503): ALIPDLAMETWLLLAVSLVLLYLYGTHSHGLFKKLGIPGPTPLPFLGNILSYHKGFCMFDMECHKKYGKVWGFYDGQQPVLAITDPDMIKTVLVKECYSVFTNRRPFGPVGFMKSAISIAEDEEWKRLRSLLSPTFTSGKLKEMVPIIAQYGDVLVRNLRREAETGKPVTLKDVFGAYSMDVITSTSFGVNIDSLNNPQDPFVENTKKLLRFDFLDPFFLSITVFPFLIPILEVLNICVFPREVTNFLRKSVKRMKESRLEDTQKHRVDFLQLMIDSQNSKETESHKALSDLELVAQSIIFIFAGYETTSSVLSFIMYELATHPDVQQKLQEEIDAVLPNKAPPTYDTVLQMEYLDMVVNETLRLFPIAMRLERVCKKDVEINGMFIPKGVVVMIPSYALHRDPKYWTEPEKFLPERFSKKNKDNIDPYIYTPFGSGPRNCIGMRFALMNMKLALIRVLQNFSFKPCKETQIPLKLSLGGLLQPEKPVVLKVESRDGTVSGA
# T2 sequence (P10635 whole entry): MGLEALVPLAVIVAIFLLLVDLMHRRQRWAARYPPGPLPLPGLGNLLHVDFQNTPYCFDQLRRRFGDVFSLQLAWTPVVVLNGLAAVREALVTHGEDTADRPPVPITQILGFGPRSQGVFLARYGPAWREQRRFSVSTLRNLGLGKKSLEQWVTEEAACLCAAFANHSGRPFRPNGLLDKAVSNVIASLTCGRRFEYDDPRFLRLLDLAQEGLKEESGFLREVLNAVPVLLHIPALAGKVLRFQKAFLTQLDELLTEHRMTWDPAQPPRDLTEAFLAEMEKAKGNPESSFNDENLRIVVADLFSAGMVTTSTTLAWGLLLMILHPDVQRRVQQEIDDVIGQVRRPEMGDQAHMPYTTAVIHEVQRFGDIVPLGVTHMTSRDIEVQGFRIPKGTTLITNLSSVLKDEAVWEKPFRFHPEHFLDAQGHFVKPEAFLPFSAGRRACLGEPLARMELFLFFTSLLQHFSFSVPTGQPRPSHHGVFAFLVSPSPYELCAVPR
smiles,measurement,setting,value
"COCC(c1cncn1[C@H](C)c1ccc(F)cc1)N1CCN(S(=O)(=O)c2cnc(N3CCN(C)CC3)s2)CC1 (single isomer, unassigned) [Compound 35]",IC50,[1],0.0038 µM
same,IC50,[2],8.89 µM
same,IC50,[3],> 10 µM
same,IC50,[4],> 10 µM
"COCCC(c1cncn1[C@H](C)c1ccc(F)cc1)N1CCN(S(=O)(=O)c2cnc(N3CCN(C)CC3)s2)CC1 (single isomer, unassigned) [Compound 36]",IC50,[1],0.0043 µM
same,IC50,[2],4.08 µM
same,IC50,[3],> 10 µM
same,IC50,[4],> 10 µM
"C[C@H](c1ccc(F)cc1)n1cncc1C1CCCC2CN(S(=O)(=O)c3cnc(Nc4ccccn4)s3)CCN21 (single isomer, unassigned) [Compound 38]",IC50,[1],0.0025 µM
same,IC50,[2],7.13 µM
same,IC50,[3],1.22 µM
same,IC50,[4],4.18 µM
